The subject of this assay is NS1 cells. As to the kind of experiment: Neurite outgrowth (NOG) assay. In kind it is cell-based. How it is done:
Neuroscreen 1 (NS1) Cells (Cellomics Inc.) were cultured on collagen type I coated 75 cm2 plastic flasks (Biocoat, Becton Dickinson) in a humidified incubator at 37° C. in 5% CO2. Cells were cultured in RPMI complete cell culture medium (Cambrex) supplemented with 10% heat-inactivated horse serum (Invitrogen), 5% heat-inactivated fetal bovine serum (Cellgro), and 2 mM L-glutamine (Cambrex). For expansion, the cells were trypsinized and split at 80% confluence. Cell culture media was changed every 2 to 3 days.
NS1 cells were harvested and counted using a Coulter counter (Becton Dickinson Coulter Z1). Cells were seeded in 96-well collagen I coated plates at a density of 2000 cells per well in volume of 200 μl. RPMI media was supplemented with 200 ng/ml nerve growth factor (NGF, Sigma). NS1 cells were incubated for 72 hours to allow differentiation to a neuronal phenotype. […]
Antibody-stained 96-well plates were stored at 4° C. in the dark until scanning. […] The neurite outgrowth assay is based on two channels to scanning: (1) Channel 1, which detects the Hoechst Dye and is used by the software to identify cells and for automated focusing; and (2) Channel 2, which detects the FITC fluorescence of the secondary antibody and is used by the software to calculate all data generated in reference to neurites. […]

Data on one molecule can be found in patent US9284335B2, “Substituted pyrido[3,2-e][1,2,4]triazolo[1,5-c]pyrimidines, pyrido[2,3-e][1,2,4]triazolo[1,5-c]pyrimidines and/or [1,2,4]triazolo[1,5-c]pteridines for treatment of central nervous system diseases and disorders” (DART NEUROSCIENCE (CAYMAN) LTD., priority 2012, dated 2016).

Structures are written as SMILES.

As to `COc1ccc(C2CNC(=O)C2)cc1OC1CCCC1` (centres unmarked) [Rolipram], the “neurite length and branching / neurite outgrowth” value (in combination with forskolin) is listed as “enhanced in dose-dependent manner”; the “neurite length and branching / neurite outgrowth” value (without forskolin) is given as “not affected”.
